Test results: patent US9347934B2, “Assays for identifying compounds that modulate bitter taste” (CHROMOCELL CORPORATION, priority 2011, dated 2016)

Tests used:
TAS2R1 = molecular target: T1, TAS2R1 (Homo sapiens, UniProt Q9NYW7); test: Calcium fluorescence functional assay, TAS2R1 cell line; assay type: cell-based; details: 20 mM tastant; cell line expressing human TAS2R1 and mouse Gα15
T1 construct: expressed in transfected cells
T1 sequence (Q9NYW7 1-299): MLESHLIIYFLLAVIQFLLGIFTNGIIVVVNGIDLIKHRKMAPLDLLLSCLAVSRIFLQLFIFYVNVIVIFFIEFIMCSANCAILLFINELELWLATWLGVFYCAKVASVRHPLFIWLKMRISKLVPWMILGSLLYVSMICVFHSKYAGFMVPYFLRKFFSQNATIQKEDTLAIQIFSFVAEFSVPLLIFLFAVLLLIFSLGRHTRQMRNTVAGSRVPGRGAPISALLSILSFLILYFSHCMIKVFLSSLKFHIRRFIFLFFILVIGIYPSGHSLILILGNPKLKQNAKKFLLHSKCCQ
Description: (§1) Accordingly, each cell line of the panel expressed a human bitter taste receptor and mouse Gα15 signaling protein.
(§2) Probenecid was not included in the load solution.
(§3) After dye loading, cell plates were placed in a fluorescent plate reader (e.g., FDSS6000 (Hamamatsu, Japan)) and receptor stimulation was measured by adding 50 ul of 3× concentrated ligand/agonist stock. Fluorescence was monitored continuously for 10 s before agonist addition and for 100-250 s after stimulation with agonist.
(§4) Receptor Activation is defined as follows: % Activation=[((Maximum signal fluorescence−Minimum signal fluorescence)−(Maximum control fluorescence−Minimum control fluorescence))/(Maximum buffer fluorescence−Minimum buffer fluorescence)]*100 Functional Response=[(Maximum signal fluorescence−Minimum signal fluorescence)−(Maximum control fluorescence−Minimum control fluorescence)] • Signal Fluorescence: refers to the change in fluorescence seen with addition of ligand • Control fluorescence: refers to the change in fluorescence seen with addition of buffer (negative control) • Calcium signals from ligand and control were normalized to the basal fluorescence of the cells prior to the stimulation.
(§5) A concentration analysis was performed and EC50 values were calculated by nonlinear regression using the formula: Y=Bottom+(Top-Bottom)/(1+10^((Log EC50-X)*Hill Slope)), X=log of dose or concentration, Y=Response (increasing as X increases), Top=maximum signal, Bottom=minimum signal.

TAS2R3 = molecular target: T2, TAS2R3 (Homo sapiens, UniProt Q9NYW6); test: Calcium fluorescence functional assay, TAS2R3 cell line; assay type: cell-based; details: 20 mM tastant; cell line expressing human TAS2R3 and mouse Gα15
T2 construct: expressed in transfected cells
T2 sequence (Q9NYW6 1-316): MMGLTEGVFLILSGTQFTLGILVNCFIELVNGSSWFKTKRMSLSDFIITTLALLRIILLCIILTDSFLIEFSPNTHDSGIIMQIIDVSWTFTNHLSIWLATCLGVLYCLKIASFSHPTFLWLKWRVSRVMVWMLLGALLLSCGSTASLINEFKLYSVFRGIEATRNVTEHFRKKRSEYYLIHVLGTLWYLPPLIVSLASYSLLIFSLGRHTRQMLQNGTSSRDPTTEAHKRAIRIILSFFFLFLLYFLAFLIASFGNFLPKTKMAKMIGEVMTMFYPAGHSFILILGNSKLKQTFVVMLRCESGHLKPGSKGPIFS
Description: as §1, §2, §3, §4, §5

TAS2R14 = molecular target: T3, TAS2R14 (Homo sapiens, UniProt Q9NYV8); test: Calcium fluorescence functional assay, TAS2R14 cell line; assay type: cell-based; details: for TAS2R14 bitter taste receptor activity (changes in intracellular calcium): 20 mM tastant, cell line expressing human TAS2R14 and mouse Gα15
T3 construct: expressed in transfected cells
T3 sequence (Q9NYV8 1-317): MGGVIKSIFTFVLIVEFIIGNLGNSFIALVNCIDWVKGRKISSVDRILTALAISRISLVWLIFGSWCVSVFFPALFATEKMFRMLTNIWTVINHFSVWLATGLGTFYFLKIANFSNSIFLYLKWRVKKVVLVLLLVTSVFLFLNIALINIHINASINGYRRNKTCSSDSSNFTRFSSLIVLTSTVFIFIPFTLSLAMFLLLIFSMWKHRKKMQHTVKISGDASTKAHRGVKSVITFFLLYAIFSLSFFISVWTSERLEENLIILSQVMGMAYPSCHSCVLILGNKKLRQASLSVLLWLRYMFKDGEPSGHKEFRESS
Description: as §1, §2, §3, §4, §5

TAS2R39 = molecular target: T4, TAS2R39 (Homo sapiens, UniProt P59534); test: Calcium fluorescence functional assay, TAS2R39 cell line; assay type: cell-based; details: 20 mM tastant; cell line expressing human TAS2R39 and mouse Gα15
T4 construct: expressed in transfected cells
T4 sequence (P59534 1-338): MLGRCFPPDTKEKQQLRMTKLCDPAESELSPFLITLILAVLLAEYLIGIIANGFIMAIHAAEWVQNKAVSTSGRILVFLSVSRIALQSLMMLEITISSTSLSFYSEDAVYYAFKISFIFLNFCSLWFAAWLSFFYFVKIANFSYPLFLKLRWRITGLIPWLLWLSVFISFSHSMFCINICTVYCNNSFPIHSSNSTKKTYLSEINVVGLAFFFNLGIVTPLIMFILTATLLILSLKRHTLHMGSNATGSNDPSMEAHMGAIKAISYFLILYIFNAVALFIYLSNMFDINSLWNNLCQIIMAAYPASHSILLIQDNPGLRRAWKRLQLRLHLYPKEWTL
Description: as §1, §2, §3, §4, §5

TAS2R45 = molecular target: T5, TAS2R45 (Homo sapiens, UniProt P59539); test: Calcium fluorescence functional assay, TAS2R45 cell line; assay type: cell-based; details: 20 mM tastant; cell line expressing human TAS2R45 and mouse Gα15
T5 construct: expressed in transfected cells
T5 sequence (P59539 1-299): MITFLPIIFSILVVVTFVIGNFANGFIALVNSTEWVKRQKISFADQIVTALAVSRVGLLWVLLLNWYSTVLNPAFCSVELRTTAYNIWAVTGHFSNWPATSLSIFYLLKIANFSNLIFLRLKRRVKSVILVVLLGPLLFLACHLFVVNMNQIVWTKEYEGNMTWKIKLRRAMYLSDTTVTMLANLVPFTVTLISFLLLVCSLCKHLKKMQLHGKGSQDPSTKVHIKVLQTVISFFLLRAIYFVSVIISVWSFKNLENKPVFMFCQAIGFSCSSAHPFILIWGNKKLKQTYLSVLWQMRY
Description: as §1, §2, §3, §4, §5

TAS2R46 = molecular target: T6, TAS2R46 (Homo sapiens, UniProt P59540); test: Calcium fluorescence functional assay, TAS2R46 cell line; assay type: cell-based; details: 20 mM tastant; cell line expressing human TAS2R46 and mouse Gα15
T6 construct: expressed in transfected cells
T6 sequence (P59540 1-309): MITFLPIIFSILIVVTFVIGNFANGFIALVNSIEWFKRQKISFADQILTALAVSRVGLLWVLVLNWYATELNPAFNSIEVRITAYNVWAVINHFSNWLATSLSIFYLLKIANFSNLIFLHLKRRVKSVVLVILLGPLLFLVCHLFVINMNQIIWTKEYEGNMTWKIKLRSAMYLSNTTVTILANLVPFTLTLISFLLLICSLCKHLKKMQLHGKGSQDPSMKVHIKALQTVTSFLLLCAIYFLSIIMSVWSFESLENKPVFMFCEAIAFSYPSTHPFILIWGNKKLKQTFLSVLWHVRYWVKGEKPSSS
Description: as §1, §2, §3, §4, §5

[1] = tested on: panel of twenty-five bitter taste receptor expressing cell lines; test: Panel of twenty-five bitter receptor expressing cell lines exposed to 20 mM tastant; assay type: cell-based, human; details: the remaining nineteen (KCl) or eighteen receptors
Description: as §1, §2, §3, §4

Structure (SMILES) | TAS2R1 bitter taste receptor activity (changes in intracellular calcium) (TAS2R1) | TAS2R3 bitter taste receptor activity (changes in intracellular calcium) (TAS2R3) | TAS2R14 bitter taste receptor activity (changes in intracellular calcium) (TAS2R14) | TAS2R39 bitter taste receptor activity (changes in intracellular calcium) (TAS2R39) | TAS2R45 bitter taste receptor activity (changes in intracellular calcium) (TAS2R45) | TAS2R46 bitter taste receptor activity (changes in intracellular calcium) (TAS2R46) | functional response of the remaining (non-responding) receptors of the panel, threshold [1] [%] | EC50 (TAS2R14; increasing concentrations of KCl, TAS2R14 cell line (FIG. 3), read-out: EC50 value, activation of TAS2R14) [mM]
CC1=CC(=O)NS(=O)(=O)O1 [Acesulfame K] | induced | did not induce | induced | did not induce | did not induce | did not induce | ≤ 40 | 
[Cl-].[K+] [KCl, potassium chloride] | did not induce | did not induce | induced | did not induce | did not induce | did not induce | ≤ 40 | 5 to 15
CC(O)C(=O)[O-].[K+] (stereo not shown) [Potassium lactate, potassium lactate] | did not induce | did not induce | induced | did not induce | did not induce | induced | ≤ 40 | 
